In ChEMBL document CHEMBL5113550, “Optimization of Pyrimidine Compounds as Potent JAK1 Inhibitors and the Discovery of R507 as a Clinical Candidate” (ACS Med Chem Lett, 2022):
pIC50: −log10 of the molar value.

Columns and labels:
[1] = Inhibition of IL-2 stimulated IFN-gamma production in BALB/c mouse at 40 mg/kg, po pretreated for 30 mins followed by IL-2 stimulation and measured after 4 hrs by ELISA; assay type: functional; conditions: time 4.5 hrs
[2] = biological target: Tyrosine-protein kinase JAK2 (Homo sapiens, UniProt O60674); assay: Inhibition of JAK2 signaling pathway in human CHEP cells assessed as inhibition of EPO-induced cell survival preincubated for 1 hr followed by EPO addition and measured after 48 hrs by CellTiter-Glo luminescent assay; assay type: toxicity, cell-based
[3] = biological target: T1, Cytochrome P450 3A4 (Homo sapiens, UniProt P08684); assay: Inhibition of CYP3A4 (unknown origin) in absence of NADPH; assay type: ADME
[4] = biological target: T1, Cytochrome P450 3A4; assay: Inhibition of CYP3A4 (unknown origin) in presence of NADPH; assay type: ADME
[5] = Inhibition of IL-2 stimulated IFN-gamma production in BALB/c mouse at 5 mg/kg, po pretreated for 30 mins followed by IL-2 stimulation and measured after 4 hrs by ELISA; assay type: functional; conditions: time 4.5 hrs
[6] = biological target: Tyrosine-protein kinase SYK (Homo sapiens, UniProt P43405); assay: Inhibition of SYK (unknown origin) assessed as reduction of IgM-stimulated ERK phosphorylation by Cell-based assay
[7] = test system: Rattus norvegicus; assay: Antiarthritic activity against collagen-induced arthritis Lewis rat model assessed as reduction in disease severity by measuring inhibition of hind limb clinical score at 100 mg/kg, po qd measured upto 20 days; assay type: functional; conditions: 480 h, time <= 20 day
[8] = AUC in Sprague-Dawley rat 5 mg/kg, po; assay type: ADME, organism-based; parameters: dose 5 mg/kg, route po; conditions: in vivo
[9] = test system: Rattus norvegicus; assay: Antiarthritic activity against collagen-induced arthritis Lewis rat model assessed as reduction in disease severity by measuring inhibition of hind limb clinical score at 50 mg/kg, po bid measured upto 20 days; assay type: functional; conditions: 480 h, time <= 20 day
[10] = test system: Rattus norvegicus; assay: Antiarthritic activity against collagen-induced arthritis Lewis rat model assessed as reduction in disease severity by measuring inhibition of hind limb clinical score at 25 mg/kg, po bid measured upto 20 days; assay type: functional; conditions: 480 h, time <= 20 day
[11] = Oral bioavailability in Sprague-Dawley rat 5 mg/kg; assay type: ADME, organism-based; conditions: in vivo
[12] = species: Homo sapiens; assay: Selectivity ratio of IC50 for inhibition of JAK2 signaling pathway in EPO-stimulated human CHEP cells to IC50 for inhibition of JAK1/JAK3 in human primary T-cells assessed as reduction of IL-2 stimulated STAT5 phosphorylation
[13] = biological target: JAK3/JAK1 (Homo sapiens, UniProt P23458+P52333); assay: Inhibition of JAK1/JAK3 in human primary T-cells assessed as reduction of IL-2 stimulated STAT5 phosphorylation preincubated for 1 hr followed by IL-2 stimulation for 15 mins by FACS method; assay type: cell-based, T-cell
Chain of JAK3/JAK1 (P52333 whole entry): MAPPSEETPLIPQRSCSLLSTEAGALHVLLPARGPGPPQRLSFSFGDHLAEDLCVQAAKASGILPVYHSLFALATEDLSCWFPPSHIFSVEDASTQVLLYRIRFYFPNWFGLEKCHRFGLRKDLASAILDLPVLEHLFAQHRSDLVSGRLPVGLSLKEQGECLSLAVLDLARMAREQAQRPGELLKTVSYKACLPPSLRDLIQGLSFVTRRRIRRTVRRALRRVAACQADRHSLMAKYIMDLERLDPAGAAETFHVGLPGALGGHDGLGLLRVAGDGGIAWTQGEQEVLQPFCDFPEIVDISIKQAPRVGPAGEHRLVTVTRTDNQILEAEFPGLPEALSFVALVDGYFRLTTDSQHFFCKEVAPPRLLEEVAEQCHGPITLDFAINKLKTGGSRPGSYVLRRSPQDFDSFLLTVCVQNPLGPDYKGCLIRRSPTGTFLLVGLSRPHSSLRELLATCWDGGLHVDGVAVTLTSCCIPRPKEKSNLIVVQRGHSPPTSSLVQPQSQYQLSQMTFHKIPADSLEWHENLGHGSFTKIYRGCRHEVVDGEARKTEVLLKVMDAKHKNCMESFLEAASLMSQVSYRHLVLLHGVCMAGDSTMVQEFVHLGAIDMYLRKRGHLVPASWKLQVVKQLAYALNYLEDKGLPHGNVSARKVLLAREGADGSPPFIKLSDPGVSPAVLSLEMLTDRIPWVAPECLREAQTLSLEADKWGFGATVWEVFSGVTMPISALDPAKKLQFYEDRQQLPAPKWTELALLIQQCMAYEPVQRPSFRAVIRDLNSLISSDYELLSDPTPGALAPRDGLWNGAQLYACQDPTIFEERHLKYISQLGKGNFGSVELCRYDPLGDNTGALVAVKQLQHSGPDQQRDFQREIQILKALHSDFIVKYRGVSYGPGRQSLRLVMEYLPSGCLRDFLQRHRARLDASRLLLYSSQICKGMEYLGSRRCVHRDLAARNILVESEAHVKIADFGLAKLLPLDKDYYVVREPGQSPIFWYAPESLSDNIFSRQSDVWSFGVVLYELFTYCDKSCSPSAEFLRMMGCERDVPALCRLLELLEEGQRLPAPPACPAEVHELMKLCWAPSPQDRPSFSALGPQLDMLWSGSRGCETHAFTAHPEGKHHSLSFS
Chain of JAK3/JAK1 (P23458 whole entry): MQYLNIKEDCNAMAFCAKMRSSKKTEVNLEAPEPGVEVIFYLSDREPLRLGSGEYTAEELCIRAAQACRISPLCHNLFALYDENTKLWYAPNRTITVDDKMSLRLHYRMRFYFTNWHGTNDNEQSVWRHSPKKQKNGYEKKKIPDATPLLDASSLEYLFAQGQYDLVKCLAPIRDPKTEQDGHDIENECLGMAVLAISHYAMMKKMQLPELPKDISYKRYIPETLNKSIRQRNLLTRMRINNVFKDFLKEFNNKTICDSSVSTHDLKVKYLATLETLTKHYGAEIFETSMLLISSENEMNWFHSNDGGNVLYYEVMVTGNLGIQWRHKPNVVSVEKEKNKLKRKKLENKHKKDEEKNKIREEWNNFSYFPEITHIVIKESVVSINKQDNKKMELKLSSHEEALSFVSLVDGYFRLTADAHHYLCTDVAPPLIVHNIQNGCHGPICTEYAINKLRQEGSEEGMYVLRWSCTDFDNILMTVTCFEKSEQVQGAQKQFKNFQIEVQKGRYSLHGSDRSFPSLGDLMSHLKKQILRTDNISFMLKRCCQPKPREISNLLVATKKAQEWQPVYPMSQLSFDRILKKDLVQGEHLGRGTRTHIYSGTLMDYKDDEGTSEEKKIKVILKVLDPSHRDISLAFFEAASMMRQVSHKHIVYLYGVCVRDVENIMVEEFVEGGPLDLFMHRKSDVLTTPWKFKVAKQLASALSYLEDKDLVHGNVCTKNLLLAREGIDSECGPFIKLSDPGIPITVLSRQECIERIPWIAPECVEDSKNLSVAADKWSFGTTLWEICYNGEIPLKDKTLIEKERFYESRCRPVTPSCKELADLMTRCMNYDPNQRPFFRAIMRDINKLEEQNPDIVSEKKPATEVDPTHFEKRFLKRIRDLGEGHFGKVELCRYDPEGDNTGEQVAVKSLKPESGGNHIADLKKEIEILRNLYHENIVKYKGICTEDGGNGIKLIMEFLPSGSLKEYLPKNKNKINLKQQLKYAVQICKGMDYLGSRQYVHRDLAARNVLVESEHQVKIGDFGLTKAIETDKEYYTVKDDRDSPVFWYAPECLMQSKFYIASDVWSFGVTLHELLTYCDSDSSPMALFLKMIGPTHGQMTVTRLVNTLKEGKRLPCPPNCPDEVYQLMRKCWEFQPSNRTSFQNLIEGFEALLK

T1 sequence (P08684 whole entry): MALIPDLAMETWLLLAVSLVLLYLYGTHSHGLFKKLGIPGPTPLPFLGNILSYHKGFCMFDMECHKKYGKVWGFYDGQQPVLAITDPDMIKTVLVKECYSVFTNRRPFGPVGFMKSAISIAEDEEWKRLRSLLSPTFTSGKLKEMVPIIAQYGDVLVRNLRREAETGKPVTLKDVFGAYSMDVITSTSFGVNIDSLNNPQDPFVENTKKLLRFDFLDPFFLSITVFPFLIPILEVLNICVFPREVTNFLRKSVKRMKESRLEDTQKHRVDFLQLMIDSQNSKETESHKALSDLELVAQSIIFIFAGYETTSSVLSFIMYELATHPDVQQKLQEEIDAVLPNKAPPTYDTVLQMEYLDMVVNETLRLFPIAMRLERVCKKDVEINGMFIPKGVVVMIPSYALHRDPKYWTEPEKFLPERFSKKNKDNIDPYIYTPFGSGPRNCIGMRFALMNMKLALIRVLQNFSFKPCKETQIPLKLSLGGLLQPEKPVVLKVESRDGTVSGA
Chain of Tyrosine-protein kinase JAK2 (O60674 whole entry): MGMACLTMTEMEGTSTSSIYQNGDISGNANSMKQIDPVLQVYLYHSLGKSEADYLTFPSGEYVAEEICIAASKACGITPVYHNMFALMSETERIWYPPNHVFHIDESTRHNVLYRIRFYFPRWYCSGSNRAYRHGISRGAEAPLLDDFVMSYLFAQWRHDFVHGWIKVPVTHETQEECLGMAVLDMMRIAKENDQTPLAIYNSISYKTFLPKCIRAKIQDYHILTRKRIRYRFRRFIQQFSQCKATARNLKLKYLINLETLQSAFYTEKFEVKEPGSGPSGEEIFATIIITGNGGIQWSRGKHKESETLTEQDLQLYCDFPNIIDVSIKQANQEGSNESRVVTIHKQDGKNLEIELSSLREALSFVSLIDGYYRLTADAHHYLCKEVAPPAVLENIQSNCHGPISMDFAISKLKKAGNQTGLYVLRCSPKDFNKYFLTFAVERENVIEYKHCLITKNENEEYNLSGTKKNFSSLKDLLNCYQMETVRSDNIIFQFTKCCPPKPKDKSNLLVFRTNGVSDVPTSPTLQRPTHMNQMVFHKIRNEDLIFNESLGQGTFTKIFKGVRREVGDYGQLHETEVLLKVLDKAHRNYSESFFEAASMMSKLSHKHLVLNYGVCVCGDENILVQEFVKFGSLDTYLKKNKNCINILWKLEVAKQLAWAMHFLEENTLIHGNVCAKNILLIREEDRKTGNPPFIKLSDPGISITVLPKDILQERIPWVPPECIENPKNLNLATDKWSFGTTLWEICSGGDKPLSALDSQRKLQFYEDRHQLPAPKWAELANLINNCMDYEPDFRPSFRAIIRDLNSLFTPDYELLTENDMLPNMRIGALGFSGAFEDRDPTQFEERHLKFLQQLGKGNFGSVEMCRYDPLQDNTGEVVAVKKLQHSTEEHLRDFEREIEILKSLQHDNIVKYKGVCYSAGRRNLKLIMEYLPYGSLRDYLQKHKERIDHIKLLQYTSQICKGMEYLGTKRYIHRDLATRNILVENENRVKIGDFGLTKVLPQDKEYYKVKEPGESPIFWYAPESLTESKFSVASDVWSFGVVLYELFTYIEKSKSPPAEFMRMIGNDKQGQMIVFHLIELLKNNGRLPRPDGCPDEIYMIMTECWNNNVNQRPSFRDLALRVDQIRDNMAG

SMILES | inhibition in vivo at 40 mg/kg [1] | pIC50 [2] | pIC50 [3] | pIC50 [4] | also measured
Cc1cnc(Nc2cccc(NS(C)(=O)=O)c2)nc1Nc1ccc2oc(=O)[nH]c2c1 | 15% |  |  |  | 
COc1ccc(Nc2ncc(C)c(Nc3ccc4oc(=O)[nH]c4c3)n2)cc1C(F)(F)F | 32% | 5.70 | 5.32 | 6.40 | 
COc1cc(Nc2ncc(C)c(Nc3ccc4oc(=O)[nH]c4c3)n2)cc(C(F)F)c1 | 92% | 6.76 | < 5.00 | 5.52 | inhibition in vivo at 5 mg/kg [5]: 66%
Cc1cnc(Nc2cccc(S(N)(=O)=O)c2)nc1Nc1ccc2c(c1)NC(=O)CO2 |  |  |  |  | pIC50 [6]: 6.15
COc1cc(Nc2ncc(C)c(Nc3ccc4oc(=O)[nH]c4c3)n2)cc(C)c1OC |  | 7.38 | < 5.00 | 5.57 | 
COc1cc(Nc2ncc(C)c(Nc3ccc4oc(=O)[nH]c4c3)n2)cc(C)c1F.O=S(=O)(O)c1ccccc1 |  |  |  |  | inhibition in vivo at 100 mg/kg [7]: 98%; AUC [8]: 507 ng·h/mL; inhibition in vivo at 50 mg/kg [9]: 98%; inhibition in vivo at 25 mg/kg [10]: 75%; bioavailability [11]: 37%
COc1cc(Nc2ncc(C)c(Nc3ccc4oc(=O)[nH]c4c3)n2)cc(C(F)(F)F)c1 | 90% | 5.77 | 5.14 | 6.30 | inhibition in vivo at 5 mg/kg [5]: 78%
COc1cc(CF)cc(Nc2ncc(C)c(Nc3ccc4oc(=O)[nH]c4c3)n2)c1 |  | 6.77 | < 5.00 | 5.10 | 
Cc1cnc(Nc2cccc(S(C)(=O)=O)c2)nc1Nc1ccc2oc(=O)[nH]c2c1 | 56% |  |  |  | 
COc1cc(Nc2ncc(C)c(Nc3ccc4oc(=O)[nH]c4c3)n2)cc(OC)c1OC | 88% | 7.09 | < 5.00 | 5.96 | Ratio IC50 [12]: 3; pIC50 [13]: 7.59
COc1cc(C)cc(Nc2ncc(C)c(Nc3ccc4oc(=O)[nH]c4c3)n2)c1 | 91% | 6.45 | < 5.00 | < 5.00 | inhibition in vivo at 5 mg/kg [5]: 55%
